Results on 24 compounds are retold here after patent US10323026B2, “Heterocyclic compound” (Takeda Pharmaceutical Company Limited, priority 2016, dated 2019).

In the test the target is T1, His-hMAGL (recombinant polyhistidine tagged human MAGL protein) (Homo sapiens, UniProt Q99685).
T1 construct: polyhistidine (His) (N); made in house; host or cells: E. coli BL21(DE3)
T1 sequence (Q99685 1-303): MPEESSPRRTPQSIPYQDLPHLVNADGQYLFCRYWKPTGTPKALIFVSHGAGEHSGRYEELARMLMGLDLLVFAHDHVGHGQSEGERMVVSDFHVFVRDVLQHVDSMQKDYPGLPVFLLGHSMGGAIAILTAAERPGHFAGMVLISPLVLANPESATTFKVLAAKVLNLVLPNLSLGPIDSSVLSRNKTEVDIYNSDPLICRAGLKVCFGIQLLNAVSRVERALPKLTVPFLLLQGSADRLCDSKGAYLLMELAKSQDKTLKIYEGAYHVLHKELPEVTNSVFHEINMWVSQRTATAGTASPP
The experiment in a line: Measurement of MAGL inhibitory activity (RapidFire-mass spectrometry of arachidonic acid produced from 2-arachidonylglycerol). Type of test: biochemical. The note with it: test compound 10 μM, His-hMAGL, substrate 2-arachidonylglycerol, 60 min preincubation; for inhibition at 10 µM: read-out: % inhibition (10 μM). Here is the method:
Furthermore, acetonitrile (50 μL) containing 3 μM arachidonic acid-d8 (Cayman Chemical Company) was added and the mixture was stirred.
The amount of arachidonic acid in the obtained enzyme reaction mixture was calculated by measuring by RapidFire-mass spectrometry and correcting by the amount of arachidonic acid-d8. High Throughput online solid phase extraction was performed using RapidFire 300™ system (Agilent Technologies, Inc.). Samples were loaded on SPE C4 cartridge (Agilent Technologies, Inc.) and desalted with 0.2 (v/v) % acetic acid (Wako Pure Chemical Industries, Ltd.) in ultrapure water/acetonitrile (70/30, v/v) at a flow rate of 1.5 mL/min, eluted at a flow rate of 0.5 mL/min with 0.2(v/v) % acetic acid dissolved in acetonitrile/ultrapure water (90/10, v/v), and injected into the mass spectrometry part. The injection needle was washed with ultrapure water (500 millisecond) and acetonitrile (500 millisecond) to minimize carry-over. […] The RapidFire300 system was controlled by RapidFire UI software version 3.6 (Agilent Technologies, Inc.).
The mass spectrometry of the resultant product was performed using API4000™ triple quadrupole mass spectrometer (AB SCIEX) equipped with an electrospray ion source (TurboIon Spray™) in a negative selected reaction monitoring (SRM) mode. The conditions of SRM are shown below. The parameters of the instrument were optimized as follows: capillary temperature 600° C., ion spray voltage −4.5 kV, collision gas 8, curtain gas 15 psi, ion source gas 1 60 psi, ion source gas 2 60 psi. The mass spectrometer was controlled by Analyst™ software version 1.5.1 (AB SCIEX). The peak area integration was analyzed using RapidFire integrator software version 3.6 (Agilent Technologies, Inc.).
MAGL inhibitory rate (%) was calculated according to the following calculation formula. (1-(arachidonic acid production amount of test compound addition group−arachidonic acid production amount of enzyme-free group)÷(arachidonic acid production amount of test compound-free group−arachidonic acid production amount of enzyme-free group))×100

In general, inhibition refers to the relative decrease from the control value, in per cent. Regarding `O=C1N[C@]2(CO1)C[C@H](C(=O)N1CCC3(CC1)CC(Oc1ccc(F)cc1Cl)C3)C2` [Example 62, (2s,4s)-2-((2-(2-chloro-4-fluorophenoxy)-7-azaspiro[3.5]non-7-yl)carbonyl)-7-oxa-5-azaspiro[3.4]octan-6-one], the inhibition at 10 µM amounted to 100%.

On to `CC1(C2CCN(C(=O)[C@H]3C[C@]4(COC(=O)N4)C3)CC2)Cc2ccc(C(F)(F)F)cc2O1` (stereo partly drawn) [Example 63, (2s,4s)-2-((4-(2-methyl-6-(trifluoromethyl)-2,3-dihydro-1-benzofuran-2-yl)piperidin-1-yl)carbonyl)-7-oxa-5-azaspiro[3.4]octan-6-one], for which the inhibition at 10 µM stood at 100%. On the same count and under the same terms, the result for `O=C1N[C@]2(CO1)C[C@H](C(=O)N1CCC(COc3ccc(CCF)cc3F)CC1)C2` [Example 64, (2s,4s)-2-((4-((2-fluoro-4-(2-fluoroethyl)phenoxy)methyl)piperidin-1-yl)carbonyl)-7-oxa-5-azaspiro[3.4]octan-6-one] reads 101%. `O=C1N[C@]2(CO1)C[C@H](C(=O)N1CC(COc3cc(C4CC4)c(C(F)(F)F)cc3F)C1)C2` [Example 65, (2s,4s)-2-((3-((5-cyclopropyl-2-fluoro-4-(trifluoromethyl)phenoxy)methyl)azetidin-1-yl)carbonyl)-7-oxa-5-azaspiro[3.4]octan-6-one]: the inhibition at 10 µM is 101%. `CC(Oc1ccc(F)cc1C(F)(F)F)C1CCN(C(=O)[C@H]2C[C@]3(COC(=O)N3)C2)CC1` (stereo partly drawn) [Example 66, (2s,4s)-2-((4-(1-(4-fluoro-2-(trifluoromethyl)phenoxy)ethyl)piperidin-1-yl)carbonyl)-7-oxa-5-azaspiro[3.4]octan-6-one]: the “% inhibition (10 μM)” value was found to be 100%. Still for that read-out and setting: for `CC(Oc1ccc(F)cc1C(F)(F)F)C1CCN(C(=O)[C@H]2C[C@]3(COC(=O)N3)C2)CC1` (stereo partly drawn) [Example 67, (2s,4s)-2-((4-(1-(4-fluoro-2-(trifluoromethyl)phenoxy)ethyl)piperidin-1-yl)carbonyl)-7-oxa-5-azaspiro[3.4]octan-6-one] the value was 100%. As to `CC1(C2CCN(C(=O)[C@H]3C[C@]4(COC(=O)N4)C3)CC2)Cc2cc(C(F)(F)F)ccc2O1` (stereo partly drawn) [Example 68, (2s,4s)-2-((4-(2-methyl-5-(trifluoromethyl)-2,3-dihydro-1-benzofuran-2-yl)piperidin-1-yl)carbonyl)-7-oxa-5-azaspiro[3.4]octan-6-one], the “% inhibition (10 μM)” value (10 µM) came to 100%.

Take `CC1(C2CCN(C(=O)[C@H]3C[C@]4(COC(=O)N4)C3)CC2)Cc2cc(C(F)(F)F)ccc2O1` (stereo partly drawn) [Example 69, (2s,4s)-2-((4-(2-methyl-5-(trifluoromethyl)-2,3-dihydro-1-benzofuran-2-yl)piperidin-1-yl)carbonyl)-7-oxa-5-azaspiro[3.4]octan-6-one]: under “10 µM”, the “% inhibition (10 μM)” value is 101%. Consider `CC1(C2CCN(C(=O)[C@H]3C[C@]4(COC(=O)N4)C3)CC2)Cc2ccc(C(F)(F)F)cc2O1` (stereo partly drawn) [Example 70, (2s,4s)-2-((4-(2-methyl-6-(trifluoromethyl)-2,3-dihydro-1-benzofuran-2-yl)piperidin-1-yl)carbonyl)-7-oxa-5-azaspiro[3.4]octan-6-one], for which, where the note is “10 µM”, the “% inhibition (10 μM)” value is reported as 101%. As to `CC1(C2CCN(C(=O)[C@H]3C[C@]4(COC(=O)N4)C3)CC2)Cc2ccc(C(F)(F)F)cc2O1` (stereo partly drawn) [Example 71, (2s,4s)-2-((4-(2-methyl-6-(trifluoromethyl)-2,3-dihydro-1-benzofuran-2-yl)piperidin-1-yl)carbonyl)-7-oxa-5-azaspiro[3.4]octan-6-one], the “% inhibition (10 μM)” value (10 µM) is listed as 101%. For the compound `Cc1cc(OCC2CN(C(=O)[C@H]3C[C@]4(COC(=O)N4)C3)C2)c(F)cc1C(F)(F)F` [Example 72, (2s,4s)-2-((3-((2-fluoro-5-methyl-4-(trifluoromethyl)phenoxy)methyl)azetidin-1-yl)carbonyl)-7-oxa-5-azaspiro[3.4]octan-6-one], the inhibition at 10 µM worked out at 101%.

`CC(Oc1ccc(F)cc1C(F)(F)F)C1CCN(C(=O)[C@H]2C[C@]3(CCC(=O)N3)C2)CC1` (stereo partly drawn) [Example 73, (2r,4s)-2-((4-(1-(4-fluoro-2-(trifluoromethyl)phenoxy)ethyl)piperidin-1-yl)carbonyl)-5-azaspiro[3.4]octan-6-one]: the inhibition at 10 µM was found to be 100%.

For `CC(Oc1ccc(F)c(F)c1F)C1CCN(C(=O)[C@H]2C[C@]3(CCC(=O)N3)C2)CC1` (stereo partly drawn) [Example 74, (2r,4s)-2-((4-(1-(2,3.4-trifluorophenoxy)ethyl)piperidin-1-yl)carbonyl)-5-azaspiro[3.4]octan-6-one], the inhibition at 10 µM was found to be 101%. Still for that read-out and setting: the result for `O=C1N[C@]2(CO1)C[C@H](C(=O)N1CC(COc3c(Cl)cc(F)cc3Cl)C1)C2` [Example 75, (2s,4s)-2-((3-((2,6-dichloro-4-fluorophenoxy)methyl)azetidin-1-yl)carbonyl)-7-oxa-5-azaspiro[3.4]octan-6-one] reads 100%; that for `O=C1N[C@]2(CO1)C[C@H](C(=O)N1CC(COc3ccc(C(F)(F)F)cc3Cl)C1)C2` [Example 76, (2s,4s)-2-((3-((2-chloro-4-(trifluoromethyl)phenoxy)methyl)azetidin-1-yl)carbonyl)-7-oxa-5-azaspiro[3.4]octan-6-one], 100%; that for `O=C1N[C@]2(CO1)C[C@H](C(=O)N1CC(COc3ccc(Cl)cc3Cl)C1)C2` [Example 79, (2s,4s)-2-((3-((2,4-dichlorophenoxy)methyl)azetidin-1-yl)carbonyl)-7-oxa-5-azaspiro[3.4]octan-6-one], 100%. Same read-out and setting: the result for `CC(Oc1ccc(F)c(F)c1F)C1CCN(C(=O)[C@H]2C[C@]3(COC(=O)N3)C2)CC1` (stereo partly drawn) [Example 80, (2s,4s)-2-((4-(1-(2,3,4-trifluorophenoxy)ethyl)piperidin-1-yl)carbonyl)-7-oxa-5-azaspiro[3.4]octan-6-one] reads 101%. For `CC(Oc1ccc(F)c(F)c1F)C1CCN(C(=O)[C@H]2C[C@]3(COC(=O)N3)C2)CC1` (stereo partly drawn) [Example 81, (2s,4s)-2-((4-(1-(2,3,4-trifluorophenoxy)ethyl)piperidin-1-yl)carbonyl)-7-oxa-5-azaspiro[3.4]octan-6-one], for the setting “10 µM”, the “% inhibition (10 μM)” value was determined as 100%. Take `CC(Oc1ccc(F)c(F)c1F)C1CCN(C(=O)[C@H]2C[C@]3(COC(=O)N3)C2)CC1` (stereo partly drawn) [Example 82, (2s,4s)-2-((4-(1-(2,3,4-trifluorophenoxy)ethyl)piperidin-1-yl)carbonyl)-7-oxa-5-azaspiro[3.4]octan-6-one]: the “% inhibition (10 μM)” value (10 µM) is given as 100%.

Consider `O=C1N[C@]2(CO1)C[C@H](C(=O)N1CC(COc3cc(C(F)(F)F)cc(C(F)(F)F)c3)C1)C2` [Example 83, (2s,4s)-2-((3-((3,5-bis(trifluoromethyl)phenoxy)methyl)azetidin-1-yl)carbonyl)-7-oxa-5-azaspiro[3.4]octan-6-one], for which the inhibition at 10 µM was found to be 100%. For `CC(Oc1c(F)cc(F)cc1F)C1CCN(C(=O)[C@H]2C[C@]3(COC(=O)N3)C2)CC1` (stereo partly drawn) [Example 85, (2s,4s)-2-((4-(1-(2,4,6-trifluorophenoxy)ethyl)piperidin-1-yl)carbonyl)-7-oxa-5-azaspiro[3.4]octan-6-one], the inhibition at 10 µM came out at 100%.

On to `CCc1cc(OCC2CN(C(=O)[C@H]3C[C@]4(COC(=O)N4)C3)C2)c(F)cc1C(F)(F)F` [Example 86, (2s,4s)-2-((3-((5-ethyl-2-fluoro-4-(trifluoromethyl)phenoxy)methyl)azetidin-1-yl)carbonyl)-7-oxa-5-azaspiro[3.4]octan-6-one], for which the inhibition at 10 µM was determined as 100%. In the case of `CC(Oc1c(F)cc(F)cc1F)C1CCN(C(=O)[C@H]2C[C@]3(COC(=O)N3)C2)CC1` (stereo partly drawn) [Example 87, (2s,4s)-2-((4-(1-(2,4,6-trifluorophenoxy)ethyl)piperidin-1-yl)carbonyl)-7-oxa-5-azaspiro[3.4]octan-6-one], the “% inhibition (10 μM)” value was found to be 100%. Same read-out and setting: the result for `CC(Oc1c(F)cc(F)cc1F)C1CCN(C(=O)[C@H]2C[C@]3(COC(=O)N3)C2)CC1` (stereo partly drawn) [Example 88, (2s,4s)-2-((4-(1-(2,4,6-trifluorophenoxy)ethyl)piperidin-1-yl)carbonyl)-7-oxa-5-azaspiro[3.4]octan-6-one] reads 100%.
